The values below come from patent US5733904A, “Method for prevention and treatment of viral infectious diseases for viral suppression” (priority 1996, dated 1998).

Series [1] concerns HIV-1 (LAV-1 strain) in MOLT-4 cells. Description: Inhibitory activity of HIV syncytia formation: HIV-1 acute-phase infection. The class given is cell-based. To be noted: in concentrations of at least 1.0 μM; 48 hours. Here is the method:
a) Activity of the medicament on HIV-1 acute-phase infection:
Cells obtained by culturing MOLT-4 (American Type Culture Collection ATCC CRL-1582) in RPMI medium (GIBCO Corp.) containing 10% FBS (fetal bovine serum: GIBCO Corp.) (culture condition: 37° C., 5% CO2 /95% air) were prepared to aliquot number of cells (1×10^5 cells/50 μl). The cell suspension, 50 μl and the liquid preparation, 50 μl containing HIV-1 (LAV-1 strain, Wain-Hobson et al., Cell 40: 9-17, 1985) in RPMI medium with 10% FBS were put into each well of a 96 hole microplate and cultured for 48 hours (Infectious condition of MOLT-4 and HIV-1: M.O.I.=4.0).
Each compound was dissolved in RPMI medium containing 10% FBS at the final concentration as shown in FIG. 1 to prepare the medicament solution. The medicament solution, 100 μl was added to the mixture of MOLT-4 cell preparation and HIV-1 preparation at the time of mixing with MOLT-4 and HIV-1 to prepare the final volume of the liquid, 200 μl. The number of formed syncytia were microscopically counted.
Tested compounds were: FAS (fasudil hydrochloride, Chem. Pharm. Bull., 40 (3), 770-773, (1992)), C kinase inhibitor H-7 (1-5-isoquinolinylsulfonyl)-2-methyl-piperazine, Sigma Corp.), and calmodulin kinase II inhibitor KN-62 (1-(N,O-bis-[5-isoquinolinylsulfonyl]-N-methyl-L-tyrosyl)-4-phenyl-piperazine, Sigma Corp., Neuroscience Lett., 129, 47 (1991)) .
The control group without the compound was prepared by replacing the medicament solution, 100 μl.
Syncytium formation activity was calculated by comparing the syncytia formation in the test group to that of the control group in the following equation.
Syncytium formation activity=number of syncytia formed in the medicament-added group/number of syncytia formed in the no-medicament-added group.

Series [2] concerns HIV-1 (LAV-1) persistently infected MOLT-4 cells with non-infected MOLT-4 cells. The series can be described thus: Inhibitory activity of HIV syncytia formation: HIV-1 chronic-phase infection. The class given is cell-based. The method, then:
b) Activity of the medicament on HIV-1 chronic-phase infection:
Cells obtained by culturing MOLT-4 (culture condition: 37° C., 5% CO2 /95% air, RPMI medium (GIBCO Corp.) containing 10% FBS) were adjusted to a preferable number of cells (1×10^5 cells/50 μl). HIV-1 (LAV-1) preparation, 50 μl was added to the cell suspension, 50 μl and subjected to a mixing culture (infectious condition of HIV-1 to MOLT-4: M.O.I.=1). The infected cell mixture was cultured by exchanging a fresh culture medium every 3 days at a volume rate of 2:5. The culture was continued for more than 1 month to prepare persistent infected cells. The concentration of the persistent infected cells was adjusted to a preferable number of cells (1×10^5 cells/50 μl ) (the persistent infected cell preparation).
Cell preparation without infection was prepared by culturing MOLT-4 (culture condition: 37° C., 5% CO2 /95% air, RPMI medium (GIBCO Corp.) containing 10% FBS) and adjusting the concentration to a preferable number of cells (1×10^5 cells/50 μl).
The persistent infected cell preparation, 50 μl, was placed in the wells of a 96 hole microplate and the non-infected cell preparation, 50 μl, was added therein and cultured for 48 hours. Numbers of the formed syncytia were counted microscopically.
Each compound solution tested was added, 100 μl, at the time of mixing the persistent infected cell preparation with the non-infected cell preparation, to provide the final concentrations shown in FIG. 2 (medicament added test group).
The no-medicament-added group (control group) was prepared by replacing the compound solution, 100 μl.

The nature of a further series: Acute toxicity in rats. Further details: species or system rat (Jcl: Wistar, 5 weeks). To be noted: rat, in vivo. Here is the method:
Acute toxicity of the compounds of the present invention were conducted on rats and mice, and low toxicity was confirmed.

A further series relates to parainfluenza virus. The series can be described thus: Inhibitory action for plaque formation of parainfluenza virus. The class given is cell-based. Particulars: mean of two, control 51.5. The method, then:
Experiments were performed according to a method described in Antiviral Chemistry and Chemotherapy, 5 (6), 366-371, 1994 and Experimental Virology, Ed. by NIH Japan alumni assoc., Maruzen Publ. 1982, p. 65-78 or p. 331-340.
Vero cells cultured in the medium (Dulbecco's modified MEM added with 10% FBS) were detached by trypsin (Sigma Corp.). The detached cells were suspended by 2×10^5 cells/ml in the same medium, and placed in the wells of a 48 hole plate. The plate was incubated at 37° C. under 5% CO2 for about one day to complete a full-sheet of the cells in all wells. After incubation, cultured supernatant was removed. A solution (50 μl) containing the compound diluted with 4-fold stepwise dilution by virus culture medium (MM: Dulbecco's modified MEM added with 2% FBS), was added thereto.
A viral solution, 50 μl, in which the number of virus (parainfluenza virus or Herpes simplex virus type I) was adjusted to about 50 pfu (plaque forming unit)/50 μl by MM, was added to each well. MM 400 μl containing 1% methylcellulose was added in each well to provide a compound-added test group. A control group was prepared by adding the viral culture medium without adding the test compound.
The groups were incubated at 37° C. under 5% CO2 for three days to form plaques and the number of plaques in each well was counted.
The test compounds were FAS, and the compound of formula [I] where R^1 is hydroxy. The final concentration of the compound in the solution was set to 100, 25, 6.3 and 1.6 μg/ml, respectively. Each test group included 2 wells and a mean of the plaque numbers was obtained.

The next series concerns C kinase. To be noted: Cranial Nerve, 45 (9), 819-824, 1993; cited from earlier work.

Molecules are shown by their SMILES.

In general, LD50 refers to the dose expected to kill half of the subjects tested. A high value points to a less toxic substance. For `Cl.O=S(=O)(c1cccc2cnccc12)N1CCCNCC1` [FAS, hexahydro-1-(5-isoquinoline-sulfonyl)-1H-1,4-diazepine hydrochloride], in series [1], the “inhibition of syncytia formation” value was 90%. In addition, in series [2], the “viral transmission from persistent infected cells to non-infected cells” value is given as “suppressed”. In series [2] (FIG. 2, 48 hours), the “inhibitory activity for syncytium formation” value is “extremely high suppressive action on syncytium formation”. The minimal effective concentration in series [2] (Human immunodeficiency virus 1, MOLT-4, 48 hours, persistent infected cells mixed with non-infected cells, read-out: concentration showing inhibitory activity for syncytium formation) was at least 3.75 µM. Further, the LD50 is 63.9 mg/kg in “Acute toxicity in rats” (iv, i. v., female); 59.9 mg/kg in the series “Acute toxicity in rats” (iv, i. v., male); 348 mg/kg in “Acute toxicity in rats” (po, p. o., female); 335 mg/kg in “Acute toxicity in rats” (po, p. o., male); 128 mg/kg in the series “Acute toxicity in rats” (sc, s. c., female); 123 mg/kg in “Acute toxicity in rats” (sc, s. c., male). Besides, the “Plaque No.” value came to 50.5 in the series with parainfluenza virus (6.3 μg/ml), 36 in the series on parainfluenza virus (25 μg/ml) and 3.5 in the series with parainfluenza virus (100 μg/ml). Further, the “C kinase inhibition” value in the series on C kinase is given as “C kinase inhibition”.
